In US20090010873A1, “Methods of Cell Therapy, Neurogenesis and Oligodendrogenesis” (YEDA RESEARCH AND DEVELOPMENT CO. LTD., priority 2004, published 2009):

Key:
APP/PS1 Tg mice [1] = assay: GA vaccination of APP/PS1 Tg mice: Morris water maze; format: in vivo, mouse; details: five weeks after first GA injection, vs untreated Tg mice
APP/PS1 Tg mice [2] = assay: GA vaccination of APP/PS1 Tg mice: hippocampal histology (plaques, microglia, neurons, neurogenesis); format: in vivo, mouse
Procedure: (xlviii) Glatiramer acetate vaccination. Each mouse was subcutaneously injected five times with a total of 100 μg of glatiramer acetate (GA (TV-5010), MW 13.5-18.5 kDa, average 16 kDa, Teva Pharmaceutical Industries Ltd., Petach Tikva, Israel), emulsified in 200 μl PBS×1, from experimental day 0 until day 24, twice during the first week and once a week thereafter.
(l) Administration of BrdU and tissue preparation. BrdU was dissolved by sonication in PBS and injected i.p. into each mouse (50 mg/kg body weight; 1.25 mg BrdU in 200 μl PBS×1). Starting from experimental day 22 after the first GA vaccination, BrdU was injected i.p. twice daily, every 12 h for 2.5 days, to label proliferating cells. Three weeks after the first BrdU injection the mice were deeply anesthetized and perfused transcardially, first with PBS and then with 4% paraformaldehyde. The whole brain was removed, postfixed overnight, and then equilibrated in phosphate-buffered 30% sucrose. Free-floating 30-μm sections were collected on a freezing microtome (Leica SM2000R) and stored at 4° C. prior to immunohistochemistry.
For immunohistochemistry, tissue sections were treated with a permeabilization/blocking solution containing 10% FCS, 2% bovine serum albumin, 1% glycine, and 0.05% Triton X-100 (Sigma-Aldrich, St. Louis). Tissue sections were stained overnight at 4° C. with specified combinations of the following primary antibodies: rat anti-BrdU (1:200; Oxford Biotechnology, Kidlington, Oxfordshire, UK), goat anti-DCX [doublecortin] (1:400; Santa Cruz Biotechnology), and mouse anti-NeuN [neuronal nuclear protein] (1:200; Chemicon, Temecula, Calif.). Secondary antibodies were FITC-conjugated donkey anti-goat, Cy-3-conjugated donkey anti-mouse, and Cy-3- or Cy-5-conjugated donkey anti-rat (1:200; Jackson ImmunoResearch, West Grove, Pa.). For labeling of microglia we used either CD11b (MAC1; 1:50; BD-Pharmingen) or FITC-conjugated Bandeiraea simplicifolia isolectin B4 (IB4, 1:50; Sigma-Aldrich, Rehovot). To detect expression of cell-surface MHC-II proteins we used anti-MHC-II Abs (rat, clone IBL-5/22; 1:50; Chemicon, Temecula, Calif.). To detect expression of human Aβ we used anti-Aβ (human amino-acid residues 1-17) (mouse, clone 6E10, Chemicon, Temecula, Calif.). Expression of IGF-I was detected by goat anti-IGF-I Abs (1:20; R&D Systems). Expression of TNF-α was detected by goat anti-TNF-α Abs (1:100; R&D Systems). T cells were detected with anti-CD3 polyclonal Abs (rabbit, 1:100; DakoCytomation, Calif.). Propidium iodide (1 μg/ml; Molecular Probes, Invitrogen, Carlsbad, Calif.) was used for nuclear staining.
For in-vivo experiments, the number of Aβ^+ plaques and CD11b^+/IB-4^+ microglia in the hippocampus were counted at 300-μm intervals from 6-8 coronal sections (30 μm) from each mouse. Neurogenesis in the DG was evaluated by counting of premature neurons (DCX^+), proliferating cells (BrdU^+), and newly formed mature neurons (BrdU^+/NeuN^+) in six coronal sections (30 μm) from each mouse. Specificity of BrdU^+/NeuN^+ co-expression was assayed using the confocal microscope (LSM 510) in optical sections at 1-μm intervals/. Cell counts, numbers of Aβ^+ plaques, plaque areas, and intensity of NeuN staining per unit area in the DG were evaluated automatically using Image-Pro Plus 4.5 software (Media Cybernetics).

Substance: glatiramer acetate [GA]
- MWM performance (spatial learning/memory) (APP/PS1 Tg mice [1]): superior to that of the untreated Tg mice
- number of Aβ plaques in hippocampus (APP/PS1 Tg mice [2]; 6 weeks later, vs untreated Tg mice): significantly fewer plaques
- newly formed mature neurons (BrdU^+/NeuN^+) (APP/PS1 Tg mice [2]; compared to non-Tg littermates): similar
- DCX^+ cells in dentate gyrus (APP/PS1 Tg mice [2]; relative to non-Tg littermates): slightly but significantly more
- BrdU^+ cells in dentate gyrus (APP/PS1 Tg mice [2]; vs untreated Tg mice): significantly more BrdU^+ cells
- CD11b^+ microglia (APP/PS1 Tg mice [2]; vs untreated Tg mice): significantly fewer CD11b^+ microglia
- area occupied by the plaques (APP/PS1 Tg mice [2]; vs untreated Tg mice): significantly smaller
- staining for NeuN (APP/PS1 Tg mice [2]; vs untreated Tg mice): significantly more intense staining for NeuN
